# According to patent US10011571B2, “Preparation method for aromatic heterocyclic compound used as selective JAK3 and/or JAK1 kinase inhibitor and application of aromatic heterocyclic compound” (SHENZHEN CHIPSCREEN BIOSCIENCES, LTD., priority 2014, dated 2018):
# Key:
# [1] = target: ITK (Homo sapiens (Human), UniProt Q08881); assay: Eurofins IC50Profiler radiometric kinase assay, ITK; assay type: biochemical; conditions: 9 semilog concentrations
# Description: (§1) A proportion of the compounds of the present invention are subjected to kinase profile screening (KinaseProfiler™)) and enzymatic inhibitory activity (IC50Profiler™)) assay by entrusting Eurofins company (http://www.eurofins.com). Besides the kinases in the JAK family, the kinases that have been screened for their activity also include most Group 3F and Group 4 kinases (ITK, BLK, TBK1, VEGFRs, ERBBs, etc.), and blood system related kinases (Zhang J. et al. 2009, Nat. Rev. Cancer., 9: 28-39). The concentration of the test compound for kinase profile screening is 1 μM, and a gradient of 9 semilog concentration gradients are used to determine IC50. Detection is carried out according to standard procedure of Eurofins Company. Briefly, according to the requirements of different kinase reactions, 0.2 μL test compound (50 μM, dissolved in dimethyl sulfoxide (DMSO)) is added to reaction buffer containing specific kinase (the buffer system containing 20 mM MOPS, 1 mM EDTA, 0.01% Brij-35, 5% Glycerol, 0.1% β-mercaptoethanol, 1 mg/mL BSA, or 50 mM TRIS, 0.1 mM EGTA, 0.1 mM Na3VO4, 0.1% β-mercaptoethanol, 1 mg/mL BSA, based on the type of kinase used). Subsequently, a kinase specific substrate at a final concentration of 50 μM (specific substrate used for specific kinase), 10 mM Mg Acetate and isotope-labeled γ-^33P ATP (radio-activity of about 500 cpm/pmol) are sequentially added to a total volume of 10 μL for the reaction system. After incubation at room temperature for 40 min, the reaction is terminated by adding 3% phosphoric acid solution. The mixture is then transferred to a filter-type low temperature spray dryer (P30 filtermat), and washed by 75 mM phosphoric acid solution for 3 times and by methanol once. After drying, radio-activity is detected. For specific procedure, see the standard procedure provided by Eurofins Company: http://www.eurofins.com/media/9724077/kinaseprofiler_assay_protocol_guide_eurofins_v64.pdf).
# [2] = target: TYK2 (Homo sapiens (Human), UniProt P29597); assay: Eurofins IC50Profiler radiometric kinase assay, TYK2; assay type: biochemical; conditions: 9 semilog concentrations
# Description: A proportion of the compounds of the present invention are subjected to kinase profile screening (KinaseProfiler™)) and enzymatic inhibitory activity (IC50Profiler™)) assay by entrusting Eurofins company (http://www.eurofins.com). Besides the kinases in the JAK family, the kinases that have been screened for their activity also include most Group 3F and Group 4 kinases (ITK, BLK, TBK1, VEGFRs, ERBBs, etc.), and blood system related kinases (Zhang J. et al. 2009, Nat. Rev. Cancer., 9: 28-39). The concentration of the test compound for kinase profile screening is 1 μM, and a gradient of 9 semilog concentration gradients are used to determine IC50. Detection is carried out according to standard procedure of Eurofins Company. Briefly, according to the requirements of different kinase reactions, 0.2 μL test compound (50 μM, dissolved in dimethyl sulfoxide (DMSO)) is added to reaction buffer containing specific kinase (the buffer system containing 20 mM MOPS, 1 mM EDTA, 0.01% Brij-35, 5% Glycerol, 0.1% β-mercaptoethanol, 1 mg/mL BSA, or 50 mM TRIS, 0.1 mM EGTA, 0.1 mM Na3VO4, 0.1% β-mercaptoethanol, 1 mg/mL BSA, based on the type of kinase used). […] After drying, radio-activity is detected. […]
# [3] = target: JAK1 (Homo sapiens (Human), UniProt P23458); assay: Eurofins IC50Profiler radiometric kinase assay, JAK1; assay type: biochemical; conditions: 9 semilog concentrations
# Description: as §1
# [4] = tested on: collagen-induced arthritis (CIA) model of rats; assay: Collagen-induced arthritis (CIA) model of rats; assay type: in vivo; conditions: rat CIA; for swelling degree induced by arthritis in the rats, compared to the solvent group: 40 mg/kg i.g.; for Inhibitory rate for arthritis score % / Inhibitory rate for paw volume % / Inhibitory rate for toe thickness % / Body weight growth rate %: 14 days after administration, Examples 40 mg/kg i.g. twice/day, MTX 5 mg/kg i.p. twice a week; for Body weight growth rate %: solvent = 100.0; for toxicity to the rats judged from body weight: compared to the solvent group
# Method: Objective: in this test, arthritis is induced by chicken collagen in Wistar rats. After in vivo administration of the compounds of Example 7 and Example 22, the change of the disease index for arthritis in rats is evaluated to determine the therapeutic effect of the test compounds on rat arthritis.
# Experimental animals: 36 female Wistar rats were purchased from the animal experiment center, Sun Yat-Sen University (Guangzhou) with the body weight ranging from 180 to 200 g at the beginning of experiment. Four groups (8 rats in each group) were used as the arthritis model, and another group (4 rats) was used as normal control.
# Materials: chicken type II collagen and Freund's complete adjuvant were purchased from Beijing Biolead Science and Technology Development Co., Ltd. Positive control: methotrexat (MTX).
# Preparation method: the test compounds were prepared by adding them to freshly prepared 0.2% CMC-Na+0.1% Tween-80 solution in sterile water to a desired concentration and thoroughly mixing through ultrasound.
# CIA model: the chicken collagen was fully emulsified in equal volume of freud's complete adjuvant, and subcutaneously injected at the tail root of the rat on day 0 for sensitization (250 μL/rat). Another injection was performed at the tail root on day 7 for supplementary immunization (100 μL/rat). After arthritis occurred (on about day 13), the rats were randomly divided into 4 groups with 8 rats in each group. Administration started on day 14 after the first immunization, and lasted for 14 days. The limbs of a rat were visually inspected, and the severity of arthritis was scored in a range from […]: 0=normal; 1=a slight symptom, with signs, such as red and swollen ankle or wrist; 2=moderate red and swollen ankle or wrist; 3=severe red and swollen paw, including toes; 4=severe swollen joint accompanied with dysfunction; the highest score for each rat was 16. The thickness of toes of posterior limbs and the paw volume were measured at the same time.
# Medication: the rats were i.g. administered with the compound of Example 7 at a concentration of 40 mg/kg twice/day; or the rats were i.g. administered with the compound of Example 22 at a concentration of 40 mg/kg twice/day. For the positive control, 5 mg/kg MTX was intraperitoneally injected twice a week. The i.g. administration of solvent was used as the negative control. The data obtained 14 days after administration and before administration were compared.
# [5] = target: Flt4 (Homo sapiens (Human), UniProt P35916); assay: Eurofins IC50Profiler radiometric kinase assay, Flt4; assay type: biochemical; conditions: 9 semilog concentrations
# Flt4, sequence (P35916 25-1363, species assumed): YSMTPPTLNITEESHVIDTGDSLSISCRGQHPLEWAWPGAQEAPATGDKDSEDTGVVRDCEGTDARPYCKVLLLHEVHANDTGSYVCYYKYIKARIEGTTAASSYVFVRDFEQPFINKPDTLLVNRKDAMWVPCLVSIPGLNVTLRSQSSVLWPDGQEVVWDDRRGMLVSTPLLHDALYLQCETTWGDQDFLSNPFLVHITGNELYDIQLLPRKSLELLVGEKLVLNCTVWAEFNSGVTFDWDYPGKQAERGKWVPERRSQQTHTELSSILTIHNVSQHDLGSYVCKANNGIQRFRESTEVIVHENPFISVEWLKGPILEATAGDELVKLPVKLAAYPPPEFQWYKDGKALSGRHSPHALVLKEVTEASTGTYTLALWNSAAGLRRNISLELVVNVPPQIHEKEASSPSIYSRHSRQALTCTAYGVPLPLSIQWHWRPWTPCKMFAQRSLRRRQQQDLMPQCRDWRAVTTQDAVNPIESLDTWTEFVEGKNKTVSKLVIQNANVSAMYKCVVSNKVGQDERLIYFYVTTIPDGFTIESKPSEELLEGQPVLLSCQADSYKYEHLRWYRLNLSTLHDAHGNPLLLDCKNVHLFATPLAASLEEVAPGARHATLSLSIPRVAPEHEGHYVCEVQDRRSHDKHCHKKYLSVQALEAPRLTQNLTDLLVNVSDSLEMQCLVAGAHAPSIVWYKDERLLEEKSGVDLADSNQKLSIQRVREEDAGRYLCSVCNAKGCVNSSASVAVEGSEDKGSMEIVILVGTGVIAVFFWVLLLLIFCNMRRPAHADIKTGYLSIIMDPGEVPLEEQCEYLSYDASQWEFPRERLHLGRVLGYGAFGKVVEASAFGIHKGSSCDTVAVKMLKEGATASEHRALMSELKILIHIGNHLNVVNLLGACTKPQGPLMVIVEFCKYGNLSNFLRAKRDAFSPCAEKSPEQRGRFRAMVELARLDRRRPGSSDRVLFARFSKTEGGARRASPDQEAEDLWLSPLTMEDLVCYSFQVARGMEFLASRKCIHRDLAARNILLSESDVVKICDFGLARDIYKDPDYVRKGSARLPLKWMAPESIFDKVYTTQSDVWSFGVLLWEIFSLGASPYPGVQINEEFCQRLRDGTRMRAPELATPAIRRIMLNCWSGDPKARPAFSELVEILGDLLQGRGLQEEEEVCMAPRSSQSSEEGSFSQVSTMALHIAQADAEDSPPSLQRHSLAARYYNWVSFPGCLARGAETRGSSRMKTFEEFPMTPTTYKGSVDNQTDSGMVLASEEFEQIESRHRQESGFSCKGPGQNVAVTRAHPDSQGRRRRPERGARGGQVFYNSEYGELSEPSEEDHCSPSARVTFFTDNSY
# Description: as §1
# [6] = target: BLK (Homo sapiens, UniProt P51451); assay: Eurofins IC50Profiler radiometric kinase assay, BLK; assay type: biochemical; conditions: 9 semilog concentrations
# BLK, sequence (P51451 2-505 limits assumed): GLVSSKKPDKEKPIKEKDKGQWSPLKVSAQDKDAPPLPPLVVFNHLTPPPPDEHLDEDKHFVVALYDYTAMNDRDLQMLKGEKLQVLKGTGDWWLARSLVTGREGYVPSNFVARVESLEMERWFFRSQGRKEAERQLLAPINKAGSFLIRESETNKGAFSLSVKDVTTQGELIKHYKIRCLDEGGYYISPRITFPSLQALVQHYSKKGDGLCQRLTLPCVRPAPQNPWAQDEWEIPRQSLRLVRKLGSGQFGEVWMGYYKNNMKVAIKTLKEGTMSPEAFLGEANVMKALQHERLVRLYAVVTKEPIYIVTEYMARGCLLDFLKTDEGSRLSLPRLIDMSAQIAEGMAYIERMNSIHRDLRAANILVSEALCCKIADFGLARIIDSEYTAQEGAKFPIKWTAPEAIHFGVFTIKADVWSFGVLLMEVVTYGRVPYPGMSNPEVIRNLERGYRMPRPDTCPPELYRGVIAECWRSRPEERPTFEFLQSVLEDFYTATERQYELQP
# Description: as §1
# [7] = target: TBK1 (Homo sapiens (Human), UniProt Q9UHD2); assay: Eurofins IC50Profiler radiometric kinase assay, TBK1; assay type: biochemical; conditions: 9 semilog concentrations
# TBK1, sequence (Q9UHD2 whole entry, species assumed): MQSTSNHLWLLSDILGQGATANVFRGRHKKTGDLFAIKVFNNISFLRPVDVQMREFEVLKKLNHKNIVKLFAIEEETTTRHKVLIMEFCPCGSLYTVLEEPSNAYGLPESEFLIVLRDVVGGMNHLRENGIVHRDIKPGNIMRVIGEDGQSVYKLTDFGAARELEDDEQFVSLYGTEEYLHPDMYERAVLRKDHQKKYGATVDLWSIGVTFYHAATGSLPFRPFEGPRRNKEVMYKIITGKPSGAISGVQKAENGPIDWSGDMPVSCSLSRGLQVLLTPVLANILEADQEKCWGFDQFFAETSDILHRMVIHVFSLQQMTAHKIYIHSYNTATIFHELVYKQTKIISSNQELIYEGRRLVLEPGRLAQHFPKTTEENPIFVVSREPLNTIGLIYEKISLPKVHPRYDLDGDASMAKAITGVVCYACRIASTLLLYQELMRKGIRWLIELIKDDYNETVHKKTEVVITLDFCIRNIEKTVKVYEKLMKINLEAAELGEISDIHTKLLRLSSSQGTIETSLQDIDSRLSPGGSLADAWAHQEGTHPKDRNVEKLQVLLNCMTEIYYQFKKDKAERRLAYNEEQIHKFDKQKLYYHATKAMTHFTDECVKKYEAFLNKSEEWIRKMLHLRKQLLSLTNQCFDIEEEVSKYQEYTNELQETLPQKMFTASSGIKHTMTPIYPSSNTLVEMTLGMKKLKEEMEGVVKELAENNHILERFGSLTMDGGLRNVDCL
# Description: as §1
# [8] = target: Flt1 (Homo sapiens (Human), UniProt P17948); assay: Eurofins IC50Profiler radiometric kinase assay, Flt1; assay type: biochemical; conditions: 9 semilog concentrations
# Flt1, sequence (P17948 27-1338, species assumed): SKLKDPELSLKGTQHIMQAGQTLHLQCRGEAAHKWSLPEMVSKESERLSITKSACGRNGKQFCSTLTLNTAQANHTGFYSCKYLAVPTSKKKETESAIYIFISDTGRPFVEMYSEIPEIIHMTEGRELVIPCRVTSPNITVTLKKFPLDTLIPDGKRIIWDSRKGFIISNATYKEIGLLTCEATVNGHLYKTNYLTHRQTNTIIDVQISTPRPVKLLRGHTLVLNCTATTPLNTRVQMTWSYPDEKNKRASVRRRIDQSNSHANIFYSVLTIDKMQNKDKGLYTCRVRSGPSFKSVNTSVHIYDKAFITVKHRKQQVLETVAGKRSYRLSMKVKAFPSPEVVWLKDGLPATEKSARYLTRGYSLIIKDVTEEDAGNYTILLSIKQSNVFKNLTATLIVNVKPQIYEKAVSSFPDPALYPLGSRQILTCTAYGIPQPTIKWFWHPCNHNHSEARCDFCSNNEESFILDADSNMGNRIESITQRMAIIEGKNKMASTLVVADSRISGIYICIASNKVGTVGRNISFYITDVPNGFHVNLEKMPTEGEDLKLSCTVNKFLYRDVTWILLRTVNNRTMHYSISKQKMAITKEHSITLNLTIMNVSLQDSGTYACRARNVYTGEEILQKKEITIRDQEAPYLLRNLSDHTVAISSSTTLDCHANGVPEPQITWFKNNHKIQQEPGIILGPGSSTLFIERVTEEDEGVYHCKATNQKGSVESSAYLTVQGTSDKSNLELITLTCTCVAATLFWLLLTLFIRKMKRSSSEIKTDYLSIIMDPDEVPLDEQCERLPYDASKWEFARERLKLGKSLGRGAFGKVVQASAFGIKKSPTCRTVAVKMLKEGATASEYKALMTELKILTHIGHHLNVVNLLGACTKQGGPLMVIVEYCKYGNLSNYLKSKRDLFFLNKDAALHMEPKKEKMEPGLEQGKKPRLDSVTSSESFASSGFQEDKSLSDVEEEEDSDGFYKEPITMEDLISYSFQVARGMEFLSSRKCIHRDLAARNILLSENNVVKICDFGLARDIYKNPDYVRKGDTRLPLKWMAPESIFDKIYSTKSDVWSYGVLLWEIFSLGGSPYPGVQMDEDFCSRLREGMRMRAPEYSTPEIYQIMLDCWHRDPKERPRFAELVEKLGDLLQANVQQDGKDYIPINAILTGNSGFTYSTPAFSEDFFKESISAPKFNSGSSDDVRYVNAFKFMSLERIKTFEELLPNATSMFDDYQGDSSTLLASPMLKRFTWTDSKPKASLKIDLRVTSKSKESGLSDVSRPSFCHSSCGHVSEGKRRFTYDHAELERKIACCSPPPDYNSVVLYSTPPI
# Description: as §1
# ITK, sequence (Q08881 whole entry, species assumed): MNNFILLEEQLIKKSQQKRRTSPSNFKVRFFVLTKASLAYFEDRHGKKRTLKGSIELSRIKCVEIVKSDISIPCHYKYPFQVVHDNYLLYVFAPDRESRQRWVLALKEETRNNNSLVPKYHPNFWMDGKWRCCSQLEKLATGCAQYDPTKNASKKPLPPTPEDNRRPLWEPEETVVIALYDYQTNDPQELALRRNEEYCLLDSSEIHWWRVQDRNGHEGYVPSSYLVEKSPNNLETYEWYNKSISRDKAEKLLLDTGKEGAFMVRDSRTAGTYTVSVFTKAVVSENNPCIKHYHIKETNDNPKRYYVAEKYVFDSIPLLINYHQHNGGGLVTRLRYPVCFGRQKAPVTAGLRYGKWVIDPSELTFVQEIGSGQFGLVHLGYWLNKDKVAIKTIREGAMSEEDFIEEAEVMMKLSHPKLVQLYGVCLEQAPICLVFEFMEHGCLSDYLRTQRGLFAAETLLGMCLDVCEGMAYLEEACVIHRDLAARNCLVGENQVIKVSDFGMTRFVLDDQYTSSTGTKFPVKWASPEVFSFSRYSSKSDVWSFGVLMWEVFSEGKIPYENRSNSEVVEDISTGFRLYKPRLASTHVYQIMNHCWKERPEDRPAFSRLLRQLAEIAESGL
SMILES,IC50 [1] [nM],IC50 [2] [nM],IC50 [3] [nM],"swelling degree induced by arthritis in the rats, compared to the solvent group [4]",Inhibitory rate for arthritis score % [4] [%],Inhibitory rate for paw volume % [4] [%],Inhibitory rate for toe thickness % [4] [%],Body weight growth rate % [4] [%],toxicity to the rats judged from body weight [4],IC50 [5] [nM],IC50 [6] [nM],IC50 [7] [nM],IC50 [8] [nM]
"C=CC(=O)N(C)c1cc(Nc2ncc(Cl)c(NCCCNC(=O)c3ccc(C#N)cc3)n2)ccc1F [Example 7, N-(3-(5-chloro-2-(4-fluoro-3-(N-methylacrylamido)phenylamino)pyrimidinyl-4-amino)propyl)-4-cyano-benzamide]",319,> 10000,105,significantly inhibited,75.0,63.6,74.3,102.2,no significant toxicity,107,286,162,698
"C=CC(=O)N(C)c1cc(Nc2ncc(Cl)c(NCCCNC(=O)c3ccc(C(F)(F)F)cc3)n2)ccc1F [Example 22, N-(3-(5-chloro-2-(4-fluoro-3-(N-methylacrylamido)phenylamino)pyrimidinyl-4-amino)propyl)-4-trifluoromethylbenzamide]",> 10000,> 10000,279,certain inhibitory effect,25.5,24.6,13.9,102.0,no significant toxicity,> 10000,1660,> 10000,> 10000
"C=CC(=O)N(C)c1cc(Nc2ncc(Cl)c(NCCCNC(=O)c3ccc(F)cc3)n2)ccc1F [Example 23, N-(3-(5-chloro-2-(4-fluoro-3-(N-methylacrylamido)phenylamino)pyrimidinyl-4-amino)propyl)-4-fluorobenzamide]",> 10000,–,173,–,–,–,–,–,–,42,855,664,1230
